From patent US20140094424A1, “MICROBICIDAL COMPOSITIONS AND METHODS OF PRODUCTION USE THEREOF” (priority 2011, published 2014) come the findings set out here.

The nature of data set [1]: Dissolution of antibiotic in Wash NEXT reagent. The note with it: 1% in Wash NEXT base pool. The class given is physicochemical.
For data set [2], the system named is creatinine biosensor (creatinine amidohydrolase, creatinine amidinohydrolase and sarcosine oxidase). Briefly: Effect on enzymatic activity of a creatinine biosensor (rate of O2% decrease). The format is biochemical. The note with it: 40 mM propionate, FIG. 2. As to the method: In FIG. 1, the effects of various concentrations of gentamicin on the enzymatic activity of a creatinine biosensor (comprising the three enzymes creatinine amidohydrolase, creatinine amidinohydrolase and sarcosine oxidase) were determined. In FIG. 2, the effects of various concentrations of propionate on the enzymatic activity of a creatinine biosensor (comprising three enzymes) were determined.
In both instances, a decreasing rate of O2% is an indicator of enzyme activity; the faster the rate of O2% decrease, the higher enzymatic activity is.

Turning to `CO[C@@H]1[C@@H](OC(N)=O)[C@@H](O)[C@H](Oc2ccc3c(O)c(NC(=O)c4ccc(O)c(CC=C(C)C)c4)c(=O)oc3c2C)OC1(C)C` [novobiocin], the “dissolution in the Wash reagent” value in data set [1] is reported as “neither antibiotic completely dissolved in the Wash reagent”.

For `CCC(=O)O` [propionate], in data set [2], the “effect on enzymatic activity of the three enzymes in the creatinine biosensor” value is “did not substantially affect the enzymatic activity”.
